Test results taken from patent publication US7220827B2, “Compound binding to leukocytes and medicinal composition containing the compound in labeled state as the active ingredient” (Nihon Medi-Physics Co., Ltd., priority 2002, dated 2007).

System: human leukocytes (granulocytes; lymphocytes and monocytes)
Assay: Distribution of Tc-99m labeled peptides in human blood (Percoll density gradient)
Assay type: cell-based
Conditions: incubation 30 minutes
Excerpt: In order to confirm clinical effectiveness of the peptide of the present invention in human, binding affinities to leukocytes of two types of peptides of the present invention were examined by using human blood. The peptide 3 and the peptide 6 labeled with Tc-99m in Example 2 were separated into unlabeled peptides and labeled peptides, and purified by reversed phase HPLC under the same conditions as of HPLC in Example 2. […]
The conventionally known peptides, Tc-99m-peptide 11 and Tc-99m-peptide 12, were prepared. Each of the peptide 11 and the peptide 12 was dissolved in dimethylformamide to prepare a solution having the concentration of 0.1 mg/500 μl. A solution of SnCl2/10 mM hydrochloric acid (5 mg/10 ml) 50 μl was added to a tartaric acid/PBS solution (5 mg/200 μl), and the peptide solution was added thereto. Then ^99mTcO4^− solution (2738 MBq/ml) 0.25 μl was infused immediately thereafter and shaken for several seconds to perform labeling reaction at 120° C. for 10 minutes. Final concentration was about 855.6 MBq/125 mg/ml. Purification and measurement of radiochemical purity were performed by using preparative HPLC. Analysis was performed under the same conditions as in Example 2, i.e. gradient: 20%→50% (0.1% TFA acetonitrile/0.1% TFA water); 0→20 minutes. Radioactivity concentration after the purification was 287–311 MBq/ml.
Subsequently, a Percoll density gradient solution was prepared based on the method described in Example 3.
Blood, 20–30 ml, was collected from adult volunteers, 40 years old or less. The Tc-99m labeled peptides, 30 μl (111 MBq/ml, 1.8×10^−11 mol/ml as Tc-peptide) each, were added thereto and incubated for 30 minutes. The blood sample 2–3 ml was layered over carefully to the prepared Percoll density gradient solution. After centrifugation at 2000 rpm (800×g) for 15 minutes, the tube was frozen and each fraction was cut off by using a cutter, then the radioactivity of each fraction was measured using Auto-Well Gamma Counter to determine the radioactivity distribution of Tc-99m-labeled peptides in the blood components.

## Tc-99m-glucoheptonic acid
  radioactivity distributed in the plasma fraction: 95.39%
  radioactivity distribution in the granulocyte fraction: 1.11 % of the radioactivity in the whole blood
  radioactivity distribution in the lymphocyte and monocyte fraction: 2.52 % of the radioactivity in the whole blood
